Source: patent publication US11512079B2, “Heterocycle substituted pyridine derivative antifungal agents” (Amplyx Pharmaceuticals, Inc., priority 2017, dated 2022)
Converted amounts (≈) assume the structure as drawn.

Legend:
Type in all cases: cell-based
Candida albicans 90028 = test: In vitro antifungal assay (Example IX), microdilution broth, MIC; settings: minimum inhibitory concentration (≥50% inhibition), 35° C., 40-48 h, RPMI1640
In short: (§1)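 Yeast inocula (2.5×10^3 cells/mL, RPMI1640) were exposed to twofold compound series reaching 2-0.0019 μg/mL final, per CLSI yeast methodology. Incubation at 35° C. ran 40-48 h for Candida albicans 90028 and 72 h for Cryptococcus neoformans H99. MIC endpoints were confirmed by absorbance at 600 nm.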

[1] = tested on: Cryptococcus neoformans H99; test: as above; settings: minimum inhibitory concentration (≥50% inhibition), 35° C., 72 h, RPMI1640
In short: as §1

[2] = tested on: Aspergillus fumigatus MYA3626; test: In vitro antifungal assay (Example IX), microdilution broth, MEC; settings: minimum effective concentration (shortening of hyphae), 35° C., 40-48 h, RPMI1640
In short: (§2)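 Read-out is the minimum effective concentration: lowest compound level causing shorter hyphae than in DMSO controls, echinocandin-style. Broth microdilution used conidia or spores harvested from agar plates, cleared of mycelium and clumps, at a final 1-2×10^4 spores/mL in RPMI1640.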

[3] = tested on: Rhizomucor pusillus 46342; test: as above; settings: minimum effective concentration (shortening of hyphae), 35° C., 40-48 h, RPMI1640
In short: as §2

Cryptococcus gattii = test: In vitro antifungal assay (Example IX), microdilution broth, MIC; settings: minimum inhibitory concentration (≥50% inhibition), 35° C., 72 h (Cryptococcus), RPMI1640
In short: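 MIC was determined from OD600 after 72 h at 35 °C for Cryptococcus, in RPMI1640 inoculated at 2.5×10^3 cells/mL. Compounds were tested as a 2-fold series from 2 to 0.0019 μg/mL final, added from DMSO intermediates at a 100-fold dilution.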

Structure (SMILES)	MIC (Candida albicans 90028) [µg/mL]	MIC [1] [µg/mL]	minimal effective concentration [2] [µg/mL]	minimal effective concentration [3] [µg/mL]	MIC (Cryptococcus gattii) [µg/mL]
Cc1cc(COc2ccc(Cc3cc(-c4cccnc4N)on3)cn2)no1 [compound 38, 3-(3-((6-((5-methylisoxazol-3-yl)methoxy)pyridin-3-yl)methyl)isoxazol-5-yl)pyridin-2-amine]	0.1 to 1 (≈ 0.275 to 2.75 µM)	0.1 to 1 (≈ 0.275 to 2.75 µM)	0.01 to 0.1	0.1 to 1	0.1 to 1 (≈ 0.275 to 2.75 µM)
Nc1ncccc1-c1cc(Cc2ccc(Nc3c(F)cccc3F)nc2)no1 [compound 237, 5-((5-(2-aminopyridin-3-yl)isoxazol-3-yl)methyl)-N-(2,6-difluorophenyl)pyridin-2-amine]	0.01 to 0.1 (≈ 0.0264 to 0.264 µM)	0.01 to 0.1 (≈ 0.0264 to 0.264 µM)	0.1 to 1	> 1	0.01 to 0.1 (≈ 0.0264 to 0.264 µM)
Nc1ncccc1-c1cc(Cc2ccc(CNc3cc(F)ccc3F)cc2)no1 [compound 196, 3-(3-(4-(((2,5-difluorophenyl)amino)methyl)benzyl)isoxazol-5-yl)pyridin-2-amine]	0.01 to 0.1 (≈ 0.0255 to 0.255 µM)	0.01 to 0.1 (≈ 0.0255 to 0.255 µM)	0.1 to 1	0.1 to 1	0.1 to 1 (≈ 0.255 to 2.55 µM)
Cc1ccc(Cc2ccc(Cc3cc(-c4cccnc4N)on3)cc2)o1 [compound 122, 3-(3-(4-((5-methylfuran-2-yl)methyl)benzyl)isoxazol-5-yl)pyridin-2-amine]	≤ 0.01	0.01 to 0.1 (≈ 0.029 to 0.29 µM)	≤ 0.01	0.01 to 0.1	0.01 to 0.1 (≈ 0.029 to 0.29 µM)
Nc1ncccc1-c1cc(Cc2ccc(CNc3cccc(F)n3)cc2)no1 [compound 31, N-(4-((5-(2-aminopyridin-3-yl)isoxazol-3-yl)methyl)benzyl)-6-fluoropyridin-2-amine]	0.01 to 0.1 (≈ 0.0266 to 0.266 µM)	0.1 to 1 (≈ 0.266 to 2.66 µM)	0.01 to 0.1	0.1 to 1	0.1 to 1 (≈ 0.266 to 2.66 µM)
Nc1ncccc1-c1cc(Cc2ccc(OCC3CCC3)nc2)no1 [compound 57, 3-(3-((6-(cyclobutylmethoxy)pyridin-3-yl)methyl)isoxazol-5-yl)pyridin-2-amine]	0.01 to 0.1 (≈ 0.0297 to 0.297 µM)	0.01 to 0.1 (≈ 0.0297 to 0.297 µM)	0.01 to 0.1	0.1 to 1	≤ 0.01
Cc1cc(COc2ccc(Cc3cc(-c4cccnc4N)on3)cc2)no1 [compound 26, 3-(3-(4-((5-methylisoxazol-3-yl)methoxy)benzyl)isoxazol-5-yl)pyridin-2-amine]	0.1 to 1 (≈ 0.276 to 2.76 µM)	0.1 to 1 (≈ 0.276 to 2.76 µM)	0.01 to 0.1	> 1	0.1 to 1 (≈ 0.276 to 2.76 µM)
Nc1ncccc1-c1cc(Cc2ccc(OCCn3cncn3)nc2)no1 [compound 202, 3-(3-((6-(2-(1H-1,2,4-triazol-1-yl)ethoxy)pyridin-3-yl)methyl)isoxazol-5-yl)pyridin-2-amine]	> 1	> 1	> 1	> 1	> 1
Nc1ncccc1-c1cc(Cc2ccc(-c3ccc(F)cc3)nc2)no1 [compound 205, 3-(3-((6-(4-fluorophenyl)pyridin-3-yl)methyl)isoxazol-5-yl)pyridin-2-amine]	0.1 to 1 (≈ 0.289 to 2.89 µM)	0.1 to 1 (≈ 0.289 to 2.89 µM)	> 1	0.1 to 1	> 1
Nc1ncccc1-c1cc(Cc2ccc(OCc3cccnc3)nc2)no1 [compound 36, 3-(3-((6-(pyridin-3-ylmethoxy)pyridin-3-yl)methyl)isoxazol-5-yl)pyridin-2-amine]	0.01 to 0.1 (≈ 0.0278 to 0.278 µM)	0.01 to 0.1 (≈ 0.0278 to 0.278 µM)	0.01 to 0.1	> 1	0.01 to 0.1 (≈ 0.0278 to 0.278 µM)
Nc1ncccc1-c1cc(Cc2ccc(Cn3cnnc3)cc2)no1 [compound 200, 3-(3-(4-((4H-1,2,4-triazol-4-yl)methyl)benzyl)isoxazol-5-yl)pyridin-2-amine]	> 1	> 1	> 1	> 1	> 1
Nc1ncccc1-c1cc(Cc2ccc(OCCc3ccccc3F)nc2)no1 [compound 77, 3-(3-((6-(2-fluorophenethoxy)pyridin-3-yl)methyl)isoxazol-5-yl)pyridin-2-amine]	0.01 to 0.1 (≈ 0.0256 to 0.256 µM)	0.01 to 0.1 (≈ 0.0256 to 0.256 µM)	0.1 to 1	0.1 to 1	0.01 to 0.1 (≈ 0.0256 to 0.256 µM)
Nc1ncccc1-c1cc(Cc2ccc(Nc3ccccc3)nc2)no1 [compound 58, 5-((5-(2-aminopyridin-3-yl)isoxazol-3-yl)methyl)-N-phenylpyridin-2-amine]	0.01 to 0.1 (≈ 0.0291 to 0.291 µM)	0.1 to 1 (≈ 0.291 to 2.91 µM)	0.1 to 1	0.1 to 1	0.01 to 0.1 (≈ 0.0291 to 0.291 µM)
Nc1ncccc1-c1cc(Cc2ccc(OCc3cccc(F)c3)cc2)no1 [Example 138, 3-(3-(4-((3-fluorobenzyl)oxy)benzyl)isoxazol-5-yl)pyridin-2-amine]	0.01 to 0.1 (≈ 0.0266 to 0.266 µM)	0.01 to 0.1 (≈ 0.0266 to 0.266 µM)	0.01 to 0.1	0.1 to 1	≤ 0.01
Nc1ncccc1-c1cc(Cc2cnc(Nc3c(F)cccc3F)c(F)c2)no1 [compound 253, 5-((5-(2-aminopyridin-3-yl)isoxazol-3-yl)methyl)-N-(2,6-difluorophenyl)-3-fluoropyridin-2-amine]	0.1 to 1 (≈ 0.252 to 2.52 µM)	0.1 to 1 (≈ 0.252 to 2.52 µM)	0.1 to 1	> 1	0.1 to 1 (≈ 0.252 to 2.52 µM)
Nc1ncccc1-c1cc(Cc2ccnc(OCc3ccccc3)c2)no1 [Example 148, 3-(3-((2-(benzyloxy)pyridin-4-yl)methyl)isoxazol-5-yl)pyridin-2-amine]	0.01 to 0.1 (≈ 0.0279 to 0.279 µM)	0.01 to 0.1 (≈ 0.0279 to 0.279 µM)	0.01 to 0.1	0.1 to 1	0.01 to 0.1 (≈ 0.0279 to 0.279 µM)
Nc1ncccc1-c1cc(Cc2ccc(OCc3ccncc3)cc2)no1 [Example 139, 3-(3-(4-(pyridin-4-ylmethoxy)benzyl)isoxazol-5-yl)pyridin-2-amine]	0.01 to 0.1 (≈ 0.0279 to 0.279 µM)	0.01 to 0.1 (≈ 0.0279 to 0.279 µM)	0.1 to 1	> 1	≤ 0.01
Nc1ncccc1-c1cc(Cc2ccc(CC3=CCOC3)cc2)no1 [compound 123, 3-(3-(4-((2,5-dihydrofuran-3-yl)methyl)benzyl)isoxazol-5-yl)pyridin-2-amine]	0.01 to 0.1 (≈ 0.03 to 0.3 µM)	0.1 to 1 (≈ 0.3 to 3 µM)	0.01 to 0.1	> 1	0.01 to 0.1 (≈ 0.03 to 0.3 µM)
Nc1ccc(-c2cc(Cc3ccc(CNc4ccccc4)cc3)no2)c(N)n1 [compound 136, 3-(3-(4-((phenylamino)methyl)benzyl)isoxazol-5-yl)pyridine-2,6-diamine]	0.1 to 1 (≈ 0.269 to 2.69 µM)	0.1 to 1 (≈ 0.269 to 2.69 µM)	0.01 to 0.1	0.01 to 0.1	0.1 to 1 (≈ 0.269 to 2.69 µM)
Nc1ncccc1-c1cc(Cc2ccc(COc3cc(F)cc(F)c3F)cc2)no1 [compound 190, 3-(3-(4-((2,3,5-trifluorophenoxy)methyl)benzyl)isoxazol-5-yl)pyridin-2-amine]	0.1 to 1 (≈ 0.243 to 2.43 µM)	0.1 to 1 (≈ 0.243 to 2.43 µM)	0.1 to 1	> 1	0.1 to 1 (≈ 0.243 to 2.43 µM)
Cc1cncc(COc2ccc(Cc3cc(-c4cccnc4N)on3)cc2)c1 [compound 114, 3-(3-(4-((5-methylpyridin-3-yl)methoxy)benzyl)isoxazol-5-yl)pyridin-2-amine]	0.1 to 1 (≈ 0.269 to 2.69 µM)	0.1 to 1 (≈ 0.269 to 2.69 µM)	0.01 to 0.1	> 1	0.1 to 1 (≈ 0.269 to 2.69 µM)
Nc1ncccc1-c1cc(Cc2ccc(OCc3cnc4ccccc4n3)cc2)no1 [compound 30, 3-(3-(4-(quinoxalin-2-ylmethoxy)benzyl)isoxazol-5-yl)pyridin-2-amine]	0.1 to 1 (≈ 0.244 to 2.44 µM)	> 1	> 1	0.1 to 1	> 1
COc1cc(COc2ccc(Cc3cc(-c4cccnc4N)on3)cn2)ccn1 [Example 165, 3-(3-((6-((2-methoxypyridin-4-yl)methoxy)pyridin-3-yl)methyl)isoxazol-5-yl)pyridin-2-amine]	0.1 to 1 (≈ 0.257 to 2.57 µM)	0.01 to 0.1 (≈ 0.0257 to 0.257 µM)	0.01 to 0.1	0.1 to 1	0.01 to 0.1 (≈ 0.0257 to 0.257 µM)
Nc1ncccc1-c1cc(Cc2ccc(CNc3cccc(F)c3F)cc2)no1 [compound 108, 3-(3-(4-(((2,3-difluorophenyl)amino)methyl)benzyl)isoxazol-5-yl)pyridin-2-amine]	0.01 to 0.1 (≈ 0.0255 to 0.255 µM)	0.1 to 1 (≈ 0.255 to 2.55 µM)	0.01 to 0.1	0.1 to 1	0.1 to 1 (≈ 0.255 to 2.55 µM)
Nc1ncccc1-c1cc(Cc2ccc(CNc3nc(Cl)cs3)cc2)no1 [compound 34, N-(4-((5-(2-aminopyridin-3-yl)isoxazol-3-yl)methyl)benzyl)-4-chlorothiazol-2-amine]	0.01 to 0.1 (≈ 0.0251 to 0.251 µM)	> 1	0.1 to 1	0.1 to 1	0.1 to 1 (≈ 0.251 to 2.51 µM)
Nc1ncccc1-c1cc(Cc2ccc(Oc3ccccc3)nc2)no1 [Example 143, 3-(3-((6-phenoxypyridin-3-yl)methyl)isoxazol-5-yl)pyridin-2-amine]	0.1 to 1 (≈ 0.29 to 2.9 µM)	0.01 to 0.1 (≈ 0.029 to 0.29 µM)	0.01 to 0.1	0.1 to 1	≤ 0.01
